Square brackets hold non-standard residues; d marks the D form. Peptide text beside a SMILES is read from it. * marks the point of attachment. Ala(1H-tetrazol-5-yl) = N[C@@H](Cc1nnn[nH]1)C(=O)O; Nle = CCCC[C@H](N)C(=O)O; Ms = CS(=O)(=O)*
Assay: Peptide stability test 4: phosphate buffer pH 7.0, stored at 40° C.
Assay type: physicochemical
Conditions: phosphate buffer pH 7.0, 40° C.; for survival rate after correction for water, 40° C., 1-month storage / survival rate after correction for water, 40° C., 2-month storage: 100 μM peptide; for survival rate after correction for water, 40° C., 2-month storage: 2 months
Protocol: Peptides 10 and 11 synthesized in Example 2 were weighed and dissolved in phosphate buffer (pH 7.0) to prepare 1.0 mM peptide solutions. The solutions were filtered with a Chromatdisk (product of Merck Millipore, Millex-GV, 0.22 Each filtrate was diluted to 100 μM with phosphate buffer (pH 7.0) and dispensed into a tube (Protein LoBind Tube by Eppendorf Co.). The prepared peptides were incubated for one month or 2 months in a 40° C. thermostatic bath to obtain stored samples. A simultaneously prepared sample among the peptide solutions that was not stored was used as a standard sample (initial sample). The standard sample and the stored samples were stored at −30° C. until sample analysis.
The survival rate after correction for water for each peptide among the stored samples was measured in the same manner as Example 4, and the results are shown in Table 8.

Row | stability in aqueous solution, in words | Compound | survival rate after correction for water, 40° C., 1-month storage | survival rate after correction for water, 40° C., 2-month storage
1 | stabilized to the same degree | CCCC[C@H](NC(=O)[C@H](CCC(N)=O)NC(=O)[C@H](CCCCN)NC(=O)[C@H](CCCNC(=N)N)NC(=O)[C@H](Cc1ccc(O)cc1)NC(=O)[C@H](CCCNC(=N)N)NC(=O)[C@H](CO)NC(=O)[C@H](Cc1ccc(O)cc1)NC(=O)[C@H](CO)NC(=O)[C@H](Cc1nnn[nH]1)NC(=O)[C@@H](NC(=O)[C@H](Cc1ccccc1)NC(=O)[C@@H](NC(=O)CNC(=O)[C@H](Cc1nnn[nH]1)NC(=O)[C@H](CO)NC(=O)[C@H](Cc1c[nH]cn1)NS(C)(=O)=O)[C@@H](C)CC)[C@@H](C)O)C(=O)N[C@@H](C)C(=O)N[C@H](C(=O)N[C@@H](CCCCN)C(=O)N[C@@H](CCCCN)C(=O)N[C@@H](Cc1ccc(O)cc1)C(=O)N[C@@H](CC(C)C)C(=O)N[C@@H](C)C(=O)N[C@@H](C)C(=O)N[C@H](C(=O)N[C@@H](CC(C)C)C(N)=O)C(C)C)C(C)C [Peptide 11] (Ms-HS[Ala(1H-tetrazol-5-yl)]GIFT[Ala(1H-tetrazol-5-yl)]SYSRYRKQ[Nle]AVKKYLAAVL-NH2) | 94.2% | 88.8%
2 | stabilized to the same degree | CC[C@H](C)[C@H](NC(=O)CNC(=O)[C@H](Cc1nnn[nH]1)NC(=O)[C@H](CO)NC(=O)[C@H](Cc1c[nH]cn1)NC(C)=O)C(=O)N[C@@H](Cc1ccccc1)C(=O)N[C@H](C(=O)N[C@@H](Cc1nnn[nH]1)C(=O)N[C@@H](CO)C(=O)N[C@@H](Cc1ccc(O)cc1)C(=O)N[C@@H](CO)C(=O)N[C@@H](CCCNC(=N)N)C(=O)N[C@@H](Cc1ccc(O)cc1)C(=O)N[C@@H](CCCNC(=N)N)C(=O)N[C@@H](CCCCN)C(=O)N[C@@H](CCC(N)=O)C(=O)N[C@@H](CCSC)C(=O)N[C@@H](C)C(=O)N[C@H](C(=O)N[C@@H](CCCCN)C(=O)N[C@@H](CCCCN)C(=O)N[C@@H](Cc1ccc(O)cc1)C(=O)N[C@@H](CC(C)C)C(=O)N[C@@H](C)C(=O)N[C@@H](C)C(=O)N[C@H](C(=O)N[C@@H](CC(C)C)C(N)=O)C(C)C)C(C)C)[C@@H](C)O [Peptide 10] (Ac-HS[Ala(1H-tetrazol-5-yl)]GIFT[Ala(1H-tetrazol-5-yl)]SYSRYRKQMAVKKYLAAVL-NH2) | 94.0% | 87.8%
